{
  "source": "patent US4610879A",
  "about": "(priority 1984, dated 1986)",
  "key": {"[1]": {"molecular_target": "fibrinolytic enzyme from Southern Copperhead venom (Agkistrodon contortrix contortrix, UniProt P28891)", "sequence (P28891 whole entry, looked up)": "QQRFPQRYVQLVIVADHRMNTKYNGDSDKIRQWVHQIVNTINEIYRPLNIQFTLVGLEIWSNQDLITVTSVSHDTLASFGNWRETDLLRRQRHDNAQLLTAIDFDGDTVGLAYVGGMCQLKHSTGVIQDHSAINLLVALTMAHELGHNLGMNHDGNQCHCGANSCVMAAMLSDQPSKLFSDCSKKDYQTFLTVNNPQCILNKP", "test": "biochemical", "format": "biochemical, Southern Copperhead snake (A.c. contortrix)"}, "human plasma clot": {"tested_on": "human plasma clot", "test": "Plasma clot lysis, human plasma", "format": "biochemical", "details": "plasmin 1.08 caseinolytic units per milliliter, after twenty-four hours"}, "azocasein": {"tested_on": "azocasein", "details": "pure plasmin, for comparison; cited from earlier work"}, "rabbit plasma clot": {"tested_on": "rabbit plasma clot", "test": "Plasma clot lysis, rabbit plasma", "format": "biochemical", "details": "plasmin 1.08 caseinolytic units per milliliter, after twenty-four hours"}, "fibrin clots": {"tested_on": "fibrin clots", "test": "Preliminary in vitro evaluation against fibrin clots in plasma", "format": "biochemical", "details": "0.1 mgm purified venom enzyme, or plasmin"}, "[2]": {"tested_on": "autologous or human clots", "test": "Streptokinase regimens in animal clot models", "format": "in vivo, dogs, pigs, and rabbits", "details": "increasing the rate of streptokinase infusion"}, "[3]": {"tested_on": "purified human plasminogen", "test": "Plasminogen activation measured by S-2251 hydrolysis", "format": "biochemical", "details": "aliquots of the venom enzyme-plasminogen mixture treated with streptokinase"}},
  "data": [
    {"compound": "O=C(O)CN(CCN(CC(=O)O)CC(=O)O)CC(=O)O", "note": "[EDTA]", "values": [
      {"measurement": "Inhibition of the venom fibrinolytic enzyme (in words)", "setting": "[1]", "value": "inhibited"},
      {"measurement": "inhibition at 50000 µM", "setting": "[1]; read-out: Inhibition of Azocaseinolytic Activity", "value": 92, "unit": "%"}
    ]},
    {"compound": "c1cnc2c(c1)ccc1cccnc12", "note": "[o-phenanthroline]", "values": [
      {"measurement": "Inhibition of the venom fibrinolytic enzyme (in words)", "setting": "[1]", "value": "inhibited"}
    ]},
    {"compound": "O=C(O)c1cc[c]([Hg][Cl])cc1", "note": "[p-Chloromercuribenzoate]", "values": [
      {"measurement": "Inhibition of the venom fibrinolytic enzyme (in words)", "setting": "[1]", "value": "not inhibited"}
    ]},
    {"compound": "plasmin", "values": [
      {"measurement": "Plasma clot lysis", "setting": "human plasma clot", "value": "did not lyse"},
      {"measurement": "Plasmin activity", "setting": "azocasein", "value": "30-35 units per mg"},
      {"measurement": "Plasma clot lysis", "setting": "rabbit plasma clot", "value": "did not lyse"},
      {"measurement": "Fibrin clot lysis in plasma clotted with thrombin", "setting": "fibrin clots", "value": "no fibrin clot lysis"}
    ]},
    {"compound": "streptokinase", "values": [
      {"measurement": "Acceleration of clot lysis", "setting": "[2]", "value": "ineffective in significantly accelerating clot lysis"},
      {"measurement": "S-2251 hydrolyzing activity (plasmin formed)", "setting": "[3]", "value": "hydrolyzing activity was generated"}
    ]},
    {"compound": "α2 -Macroglobulin", "values": [
      {"measurement": "Inhibition of Azocaseinolytic Activity", "setting": "[1]", "value": 95, "unit": "%"},
      {"measurement": "Inhibition of the venom fibrinolytic enzyme (in words)", "setting": "[1]", "value": "inhibits"}
    ]}
  ]
}
